{
  "source": "patent US12121581B2",
  "about": "“Method of photodynamic therapy” (OSLO UNIVERSITETSSYKEHUS HF, priority 2018, dated 2024)",
  "key": {"U87 cells": {"test_system": "U87 cells", "assay": "LUMIBLAST cell viability, MTT assay", "assay_type": "cell-based", "description": "Efficiency of the luminol derivatives was investigated. The initial derivative tested was HD92 (also referred to herein as “AP47”). U87 cells were inoculated in 96 well plates. The cells were then divided into the following groups (at least 6 parallels per group): CTRL (media only), ALA CTRL (2 mM), HD92 CTRL (500 μM) and the LUMIBLAST group (2 mM 5-ALA and 500 μM HD92). Correspondingly, MCF7 cells were inoculated in 96 well plates and left to grow overnight. The cells were then divided into the following groups (at least 6 parallels per group): CTRL (media only), Hypocrellin A CTRL (HYPA 7 μM), HD92 CTRL (500 μM) and the LUMIBLAST group (7 μM HYPA and 500 μM HD92). These four groups were incubated in media with and without 10 μM FeSO4 in the case of experiments with HYPA. […] In brief, all cell groups were incubated with 0.5 mg/mL MTT for 3 hours. The MTT media were subsequently replaced with DMSO (100 μL) to solubilise the formazan. The wells were read for absorbance at 562 nm using a Tecan Spark OM plate reader. The cytotoxicity was determined as the percentage of control (media only) absorbance following subtraction of blank values from wells without cells.\nMCF7 and U87 cells were inoculated in 96 well plates. The cells were then divided into the following groups (at least 6 parallels per group): CTRL (media only), HYPA CTRL (3 μM), DZ168 CTRL (5, 10, 20 and 30 μM), and the LUMIBLAST combinations (3 μM HYPA+DZ168 5-30 μM). These cell group incubations were also repeated in media containing 100 μM CuSO4. […]\nMCF7 and U87 cells were inoculated in 96 well plates. The cells were then divided into the following groups (at least 6 parallels per group):CTRL (media only), HYPA CTRL (5 μM), DZ167 CTRL (25-200 μM), and the LUMIBLAST combinations (5 μM HYPA+DZ167 25-200 μM). These incubations were performed in media containing 50 μM CuSO4. […]\nThe subcellular localisation of cercosporin together with that of synthesised derivatives DZ203 (short alkyl linker) and DZ196 (oligoPEG linker) was investigated. U87 cells were inoculated in 96 well plates. The cells were then divided into the following groups (at least 6 parallels per group). CTRL (media only), Cercosporin CTRL (3 μM), DZ203 CTRL (200 μM), DZ196 CTRL (500 μM) and the LUMIBLAST combinations (3 μM cercosporin+DZ203 200 μM or 3 μM cercosporin DZ196 500 μM). […]"}, "MCF7 cells": {"test_system": "MCF7 cells", "assay": "LUMIBLAST cell viability, MTT assay", "assay_type": "cell-based", "description": "(§1) Efficiency of the luminol derivatives was investigated. The initial derivative tested was HD92 (also referred to herein as “AP47”). U87 cells were inoculated in 96 well plates. The cells were then divided into the following groups (at least 6 parallels per group): CTRL (media only), ALA CTRL (2 mM), HD92 CTRL (500 μM) and the LUMIBLAST group (2 mM 5-ALA and 500 μM HD92). Correspondingly, MCF7 cells were inoculated in 96 well plates and left to grow overnight. The cells were then divided into the following groups (at least 6 parallels per group): CTRL (media only), Hypocrellin A CTRL (HYPA 7 μM), HD92 CTRL (500 μM) and the LUMIBLAST group (7 μM HYPA and 500 μM HD92). These four groups were incubated in media with and without 10 μM FeSO4 in the case of experiments with HYPA. Following incubation of the cells with their respective drug strategies overnight (˜20 hours), the cell groups were tested for their viability using a standard MTT assay. In brief, all cell groups were incubated with 0.5 mg/mL MTT for 3 hours. The MTT media were subsequently replaced with DMSO (100 μL) to solubilise the formazan. The wells were read for absorbance at 562 nm using a Tecan Spark OM plate reader. The cytotoxicity was determined as the percentage of control (media only) absorbance following subtraction of blank values from wells without cells.\nMCF7 and U87 cells were inoculated in 96 well plates. The cells were then divided into the following groups (at least 6 parallels per group): CTRL (media only), HYPA CTRL (3 μM), DZ168 CTRL (5, 10, 20 and 30 μM), and the LUMIBLAST combinations (3 μM HYPA+DZ168 5-30 μM). These cell group incubations were also repeated in media containing 100 μM CuSO4. Following incubation of the cells with their respective drug strategies overnight (˜20 hours), the cell groups were tested for their viability using the MTT assay."}, "[1]": {"test_system": "MDA-MB-231 breast carcinoma cells", "assay": "LUMIBLAST cell viability, MTT assay", "assay_type": "cell-based", "conditions": "1.2 mM 5-ALA + DZ203 400 μM, 100 μM CuSO4, ~20 hours", "description": "as §1\nMDA-MB-231 cells were inoculated in 96 well plates. […]"}, "cells": {"test_system": "cells", "conditions": "luminol together with transferrin-haematoporphyrin conjugates; cited from earlier work"}},
  "data": [
    {"smiles": "O=C(CCCCC[P+](c1ccccc1)(c1ccccc1)c1ccccc1)Nc1cccc2c(=O)[nH][nH]c(=O)c12.[Br-]", "note": "[AP47, (6-((1,4-dioxo-1,2,3,4-tetrahydrophthalazin-5-yl)amino)-6-oxohexyl)triphenylphosphonium bromide]", "values": [
      {"measurement": "combinatory cytotoxic effect (MTT viability)", "setting": "U87 cells; U87, 2 mM 5-ALA and 500 μM HD92, ~20 hours, relative to HD92 control", "result": "combinatory cytotoxic effect is profoundly significant"},
      {"measurement": "toxicity of the derivative alone (MTT viability)", "setting": "U87 cells; U87, HD92 CTRL 500 μM, ~20 hours", "result": "sub-toxic but very near the margins of chemical toxicity"},
      {"measurement": "combinatory cytotoxic effect (MTT viability)", "setting": "MCF7 cells; 7 μM HYPA and 500 μM HD92, 10 μM FeSO4, ~20 hours, relative to HD92 control", "result": "combinatory cytotoxic effect is profoundly significant"},
      {"measurement": "toxicity of the derivative alone (MTT viability)", "setting": "MCF7 cells; HD92 CTRL 500 μM, ~20 hours", "result": "sub-toxic but very near the margins of chemical toxicity"}
    ]},
    {"smiles": "NCC(=O)CCC(=O)O", "note": "[Compound 5-ALA, 5-aminolevulinic acid, reference compound]", "values": [
      {"measurement": "efficiency of photosensitizer in producing LUMIBLAST effects", "setting": "U87 cells; 2 mM 5-ALA with 500 μM HD92 in U87, compared with HYPA in MCF7 with FeSO4", "result": "less efficient in producing LUMIBLAST effects than HYPA"}
    ]},
    {"smiles": "O=c1[nH][nH]c(=O)c2c(NCCCCCC[P+](c3ccccc3)(c3ccccc3)c3ccccc3)cccc12.[I-]", "note": "[DZ167, (6-((1,4-dioxo-1,2,3,4-tetrahydrophthalazin-5-yl)amino)hexyl)triphenylphosphonium iodide]", "values": [
      {"measurement": "LUMIBLAST effect (MTT viability)", "setting": "U87 cells; U87, 200 μM DZ167, 5 μM HYPA and 50 μM CuSO4, ~20 hours", "result": "synergistic effect"}
    ]},
    {"smiles": "O=c1[nH][nH]c(=O)c2c(NCCCCCCCCCC[P+](c3ccccc3)(c3ccccc3)c3ccccc3)cccc12.[I-]", "note": "[DZ168, (10-((1,4-dioxo-1,2,3,4-tetrahydrophthalazin-5-yl)amino)decyl)triphenylphosphonium iodide]", "values": [
      {"measurement": "toxicity (MTT viability)", "setting": "U87 cells; U87, 3 μM HYPA + DZ168 5-30 μM, 100 μM CuSO4, ~20 hours", "result": "not affected"},
      {"measurement": "toxicity (MTT viability)", "setting": "MCF7 cells; 3 μM HYPA + DZ168 5-30 μM, 100 μM CuSO4, ~20 hours", "result": "enhanced toxicity"}
    ]},
    {"smiles": "O=c1[nH][nH]c(=O)c2c(NCCOCCOCC[P+](c3ccccc3)(c3ccccc3)c3ccccc3)cccc12.[I-]", "note": "[DZ196, (2-(2-(2-((1,4-dioxo-1,2,3,4-tetrahydrophthalazin-5-yl)amino)ethoxy)ethoxy)ethyl)triphenylphosphonium iodide]", "values": [
      {"measurement": "LUMIBLAST effect (MTT viability)", "setting": "U87 cells; U87, 3 μM cercosporin + DZ196 500 μM, without Cu", "result": "smaller effect"}
    ]},
    {"smiles": "O=c1[nH][nH]c(=O)c2c(NCCC[P+](c3ccccc3)(c3ccccc3)c3ccccc3)cccc12.[I-]", "note": "[DZ203, (3-((1,4-dioxo-1,2,3,4-tetrahydrophthalazin-5-yl)amino)propyl)triphenylphosphonium iodide]", "values": [
      {"measurement": "LUMIBLAST effect (MTT viability)", "setting": "U87 cells; U87, 3 μM cercosporin + DZ203 200 μM, 24 hours, presence of Cu (150 μM)", "result": "very profound effect"},
      {"measurement": "LUMIBLAST effect (MTT viability)", "setting": "[1]", "result": "substantial synergy"}
    ]},
    {"smiles": "Nc1cccc2c(=O)[nH][nH]c(=O)c12", "note": "[luminol]", "values": [
      {"measurement": "cytotoxicity", "setting": "cells", "result": 95, "unit": "%"}
    ]}
  ]
}
